Experimental data from ChEMBL document CHEMBL6153067, “Transition State Analogs of Human DNPH1 Reveal Two Electrophile Migration Mechanisms” (J Med Chem, 2025).
The source made the active and inactive calls. The calls are words filed in the database; no cut-off is given here.

How the values were obtained:
[1] = molecular target: T1, 5-hydroxymethyl-dUMP N-hydrolase (Homo sapiens, UniProt O43598); assay: Competitive inhibition of wild-type truncated human DNPH1 extracted from Escherichia coli BL21DE3 using hmdUMP as substrate preincubated for 30 mins followed by substrate addition measured after 60 mins in presence of NADH
T1 sequence (O43598 whole entry): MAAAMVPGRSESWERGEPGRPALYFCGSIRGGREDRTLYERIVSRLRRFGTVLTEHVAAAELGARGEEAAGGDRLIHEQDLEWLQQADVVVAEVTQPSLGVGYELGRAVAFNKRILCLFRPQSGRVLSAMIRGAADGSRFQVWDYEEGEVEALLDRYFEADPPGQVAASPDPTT

[2] = molecular target: T2, 5-hydroxymethyl-dUMP N-hydrolase (Homo sapiens) (UniProt O43598); conditions: dose 1.0 mM, time 30.0 min
T2 sequence (whole entry): T1 sequence (O43598 whole entry)

[3] = molecular target: T1, 5-hydroxymethyl-dUMP N-hydrolase; assay: Binding affinity to wild-type truncated human DNPH1 extracted from Escherichia coli BL21DE3 assessed as dissociation constant by ITC analysis
[4] = molecular target: T1, 5-hydroxymethyl-dUMP N-hydrolase; assay: Inhibition of wild-type truncated human DNPH1 extracted from Escherichia coli BL21DE3 assessed as decrease in hmdUMP hydrolysis preincubated for 30 mins followed by hmdUMP addition measured after 30 mins in presence of NADH
[5] = molecular target: T1, 5-hydroxymethyl-dUMP N-hydrolase; assay: Binding affinity to DNPH1 (unknown origin) assessed as equilibrium constant

O=c1[nH]c(=O)n([C@@H]2O[C@H](COP(=O)(O)O)[C@@H](O)[C@@H]2F)cc1CO
Kd [1]: 0.57 µM | inhibition [2]: Active; Potent Than Ump | Kd [3]: 0.43 µM | IC50 [4]: 1.5 µM

O=P(O)(O)OC[C@H]1CN(Cc2cncc(CO)c2)C[C@@H]1O
Ki [1]: 3.67 µM

COc1nc(OC)c(CN2C[C@H](COP(=O)(O)O)[C@@H](O)C2)cc1F
Ki [1]: 12.3 µM

O=P(O)(O)OC[C@H]1CNC[C@@H]1OP(=O)(O)O
Ki [1]: > 50 µM

O=P(O)(O)OC[C@H]1CN(Cc2ccccc2)C[C@@H]1O
Ki [1]: > 50 µM

O=P(O)(O)OC[C@H]1CNC[C@@H]1O
Ki [1]: 3.3 µM | Kd [3]: 1.3 µM

O=c1[nH]cc(CN2C[C@H](COP(=O)(O)O)[C@@H](O)C2)cc1CO
Ki [1]: 0.61 µM

O=c1[nH]c(=O)n([C@H]2C[C@H](O)[C@@H](CP(=O)(O)O)O2)cc1CO
Kd [5]: 6.3 µM

O=c1[nH]c(=O)n([C@@H]2O[C@H](COP(=O)(O)O)[C@@H](O)[C@H]2O)cc1CO
Kd [1]: 0.6 µM | inhibition [2]: Active; Potent Than Ump | IC50 [4]: 1.3 µM

O=P(O)(O)OC[C@H]1CN(Cc2cccnc2)C[C@@H]1O
Ki [1]: 20.7 µM

O=c1cc(CN2C[C@H](COP(=O)(O)O)[C@@H](O)C2)[nH]c(=O)[nH]1
Ki [1]: 5.17 µM

O=P(O)(O)OC[C@H]1NCC[C@@H]1O
Ki [1]: > 50 µM

O=P(O)(O)OC[C@H]1CN(Cc2cc(CO)c(F)nc2F)C[C@@H]1O
Ki [1]: 5.14 µM

O=P(O)(O)OC[C@H]1CN(Cc2ccc(F)nc2F)C[C@@H]1O
Ki [1]: 25.8 µM

Nc1ncnc2c(CN3C[C@H](COP(=O)(O)O)[C@@H](O)C3)c[nH]c12
Ki [1]: 2.85 µM

O=c1[nH]cccc1CN1C[C@H](COP(=O)(O)O)[C@@H](O)C1
Ki [1]: 36.8 µM

O=c1[nH]c(=O)n([C@@H]2O[C@H](COP(=O)(O)O)[C@@H](O)[C@@H]2O)cc1CO
Kd [1]: > 50 µM | IC50 [4]: > 100 µM

O=c1[nH]c(CN2C[C@H](COP(=O)(O)O)[C@@H](O)C2)c(CO)c(=O)[nH]1
Ki [1]: > 50 µM

O=P(O)(O)OC[C@H]1NC[C@H](O)[C@@H]1O
Ki [1]: > 50 µM

Nc1nc2c(CN3C[C@H](COP(=O)(O)O)[C@@H](O)C3)c[nH]c2c(=O)[nH]1
Ki [1]: 6.5 µM
